“Also recorded” adds a separate entry of the source. Like-named read-outs stand apart in the source and are kept apart here.
Key:
[1] = test system: MIA PaCa-2 pancreatic cancer cell line; assay: MTT cell proliferation assay, MIA PaCa-2; type: cell-based, human
Description: (§1) The cell lines were obtained from Public Health England Culture Collections. MIA-PaCa-2 is a human pancreatic carcinoma cell line; PANC-1 is a human pancreatic epithelioid carcinoma cell line.
(§2) Assays were performed in triplicate.
(§3) Cells were then cultured for 24 hr prior to assay, then cell proliferation was measured.
(§4) With both cell lines 5FU was used at its IC50. The IC50 concentration represents the concentration at which a substance exerts half of its maximal inhibitory effect. The IC50 for each cell line was calculated by treating with a series of 10-fold dilutions of 5FU ranging from 1 nM to 10 mM. The MTT assay was used to calculate cancer cell viability after 72 hr incubation with 5FU at each concentration.

[2] = test system: PANC-1 pancreatic cancer cell line; assay: MTT cell proliferation assay, PANC-1; type: cell-based, human; settings: for IC50: Homo sapiens, PANC-1, MTT
Description: as §1, §2, §3, §4

[3] = test system: Human multiple myeloma cell lines (H929, JJN3 and U266); assay: Apoptosis assay (Annexin V and 7-AAD labelling, flow cytometry); type: cell-based; settings: MDX-124 20 μM, bortezomib 20 nM or both (1000:1), 48 h
Description: The effect of MDX-124, bortezomib and the combination of both agents on apoptosis was assessed using Annexin V and 7-AAD labelling. Human multiple myeloma cell lines (H929, JJN3 and U266, all from DSMZ, Leibniz Institute, German Collection of Microorganisms and Cell Cultures, GmbH, Germany) were incubated with either MDX-124 (20 μM), bortezomib (20 nM, Cell Signaling Technology, MA, USA) or the combination of both agents (fixed molar ratio of 1000:1) in 1 mL of RPMI media supplemented with 10% FCS for 48 h. The percentage of apoptosis above untreated control cell levels was quantified using flow cytometry for each respective treatment group.

p-BCL2 (pS70) = assay: Expression of apoptosis related protein p-BCL2 (flow cytometry); type: cell-based, human; settings: MDX-124 20 μM, bortezomib 20 nM or both, 4 h; multiple myeloma cell lines
Description: (§5) The effects of MDX-124, bortezomib and the combination of both agents on the expression of 2 apoptosis related proteins, p-BCL2 and p-STAT3, was assessed using flow cytometry. Aliquots of each human multiple myeloma cell line were treated with either MDX-124 (20 μM), bortezomib (20 nM) or a combination of MDX-124 and bortezomib for 4 h prior to staining with an Alexa488-labelled p-STAT3 (Tyr705, from BD Biosciences, catalogue #557814) antibody and a PE-labelled p-BCL2 ([…], BD Biosciences, catalogue #562532) antibody. Mean fluorescence intensity values for each treatment group were compared with untreated control cells.

p-STAT3 (Tyr705) = assay: Expression of apoptosis related protein p-STAT3 (flow cytometry); type: cell-based, human; settings: MDX-124 20 μM, bortezomib 20 nM or both, 4 h; multiple myeloma cell lines
Description: as §5

interleukin-6 (IL-6) = assay: Intracellular IL-6 expression (flow cytometry); type: cell-based, human; settings: MDX-124 20 μM, bortezomib 20 nM or both, 24h; multiple myeloma cell lines
Description: The effects of each agent, both alone and in combination, on the expression of interleukin-6 (IL-6) were assessed using flow cytometry. […] Mean fluorescence intensity values for IL-6 for each respective treatment group were compared with untreated control cells.

[4] = test system: triple-negative breast cancer cell line HCC1806; assay: MTT cell proliferation assay, HCC1806
LL/2 lung cancer cells = assay: LL/2 murine model of lung cancer; type: in vivo, C57BL/6 mice; settings: LL/2, MDX-124 10 mg/kg weekly, anti-PD-1 10 mg/kg twice weekly; two-way repeated measures ANOVA/mixed-effects model
Description: Drugs were administered as described above. Tumour volume was measured at days 2, 5, 8, 12 and 15, at which point the vehicle and monotherapy groups were terminated. The combination therapy group was measured again at day 19 and then terminated.
Results were analysed using a two-way repeated measures ANOVA/mixed-effects model. […] No body weight loss was detected in this study.

[5] = test system: EMT6 triple-negative breast cancer cells; assay: EMT6 mouse model of breast cancer; type: in vivo, BALB/c mice
Description: Nine-week-old female BALB/c mice were inoculated subcutaneously with 5×10^5 EMT6 triple-negative breast cancer cells. […] Tumour volume was measured twice weekly for 3 weeks. The anti-PD-1 antibody used is the mouse antibody RMP-1-14 (Yamazaki et al., Journal of Immunology 175(3): 1586-1592, 2005); PBS was administered by intraperitoneal injection; antibodies were administered by intravenous injection.

Q: How did the IC50 ([1]; Homo sapiens, MIA PaCa-2, MTT, 72 hr incubation, repeated 8 times, read-out: IC50 of 5FU (concentration at which 50% of cells were not viable)) turn out when `O=c1[nH]cc(F)c(=O)[nH]1` [5FU, 5-fluorouracil, reference compound] was run?
A: 100 µM

Q: And the IC50 ([2]; 72 hr incubation, repeated 8 times, read-out: IC50 of 5FU (concentration at which 50% of cells were not viable))?
A: 1000 µM

Q: Which “apoptosis (percentage above untreated control cell levels)” value [3] does the source give for `CC(C)C[C@H](NC(=O)[C@H](Cc1ccccc1)NC(=O)c1cnccn1)B(O)O` [bortezomib, reference compound] here?
A: significantly induced apoptosis

Q: And the “expression of p-BCL2 (mean fluorescence intensity vs untreated control cells)” value (p-BCL2 (pS70))?
A: reduced the expression

Q: And the “expression of p-STAT3 (mean fluorescence intensity vs untreated control cells)” value (p-STAT3 (Tyr705))?
A: reduced the expression

Q: What about the “intracellular IL-6 expression (mean fluorescence intensity vs untreated control cells)” value (interleukin-6 (IL-6)) of the same molecule?
A: modestly reduced

Q: With `N.N.[Cl][Pt][Cl]` [cisplatin, reference compound] as the molecule, how does the IC50 ([4]; read-out: IC50 of cisplatin (concentration at which 50% of cells were not viable), HCC1806, MTT, repeated four times) read?
A: 0.65 µM

Q: How did the IC50 ([2]; repeated three times, read-out: IC50 of gemcitabine (concentration at which 50% of cells were not viable)) turn out when `Nc1ccn([C@@H]2O[C@H](CO)[C@@H](O)C2(F)F)c(=O)n1` [gemcitabine, reference compound] was run?
A: 20 µM

Q: `CC(=O)O[C@H]1C(=O)[C@@]2(C)[C@H]([C@H](OC(=O)c3ccccc3)[C@]3(O)C[C@H](OC(=O)[C@H](O)[C@@H](NC(=O)c4ccccc4)c4ccccc4)C(C)=C1C3(C)C)[C@]1(OC(C)=O)CO[C@@H]1C[C@@H]2O` [paclitaxel, reference compound] was tested. Which IC20 ([4]; Homo sapiens, HCC1806, read-out: IC20 of paclitaxel (concentration at which 20% of cells were not viable)) did it give?
A: 0.0004 µM

Q: Which “anti-proliferative effect, single agent” value ([1]; MIA PaCa-2, MDX-124 alone 2.5-10 μM, 72 hours, vs IgG isotype control) does the source give for “MDX-124: humanised IgG1 antibody against ANXA1 with a light chain of SEQ ID NO: 13 and a heavy chain of SEQ ID NO: 14” here?
A: significantly reduces cancer cell proliferation; also recorded: relatively potent anti-proliferative effect

Q: And the “anti-proliferative effect, single agent” value ([2]; PANC-1, MDX-124 alone 2.5-10 μM, 72 hours, vs IgG isotype control)?
A: significantly reduces cancer cell proliferation; also recorded: relatively potent anti-proliferative effect

Q: What about the “tumour growth compared to vehicle (and monotherapies)” value (LL/2 lung cancer cells) of the same molecule?
A: No significant differences

Q: What about the “apoptosis (percentage above untreated control cell levels)” value [3] of the same molecule?
A: had an impact on apoptosis

Q: What about the “expression of p-BCL2 (mean fluorescence intensity vs untreated control cells)” value (p-BCL2 (pS70)) of the same molecule?
A: reduced the expression

Q: What about the “expression of p-STAT3 (mean fluorescence intensity vs untreated control cells)” value (p-STAT3 (Tyr705)) of the same molecule?
A: reduced the expression

Q: And the “intracellular IL-6 expression (mean fluorescence intensity vs untreated control cells)” value (interleukin-6 (IL-6))?
A: modestly reduced

Q: And the “anti-proliferative effect, single agent” value ([4]; HCC1806, MDX-124 alone 2.5-10 μM, vs IgG isotype control)?
A: significantly reduces cancer cell proliferation; also recorded: anti-proliferative effect

B1: MDX-001: murine anti-ANXA1 antibody, parent of MDX-124; light and heavy chains of SEQ ID NOs: 30 and 31 (antibody, listed as Mus musculus)
heavy: QVQLQQSGPELVRPGTSVKMSCKASGYTFTNYWIGWAKQRPGHGLEWIGDIYPGGDYTNYNEKFKGKATLTADKSSSTAYMQFSSLTSEDSAIYYCARWGLGYYFDYWGQGITLTVSSAKTTPPSVYPLAPGCGDTTGSSVTLGCLVKGYFPESVTVTWNSGSLSSSVHTFPALLQSGLYTMSSSVTVPSSTWPSQTVTCSVAHPASSTTVDKKLEPSGPISTINPCPPCKECHKCPAPNLEGGPSVFIFPPNIKDVLMISLTPKVTCVVVDVSEDDPDVQISWFVNNVEVHTAQTQTHREDYNSTIRVVSTLPIQHQDWMSGKEFKCKVNNKDLPSPIERTISKIKGLVRAPQVYILPPPAEQLSRKDVSLTCLVVGFNPGDISVEWTSNGHTEENYKDTAPVLDSDGSYFIYSKLNMKTSKWEKTDSFSCNVRHEGLKNYYLKKTISRSPGK
light: DAVMTQTPLSLPVSLGDQVSISCRSSQSLENSNGKTYLNWYLQKPGQSPQLLIYGVSNRFSGVLDRFSGSGSGTDFTLKISRVEAEDLGVYFCLQVTHVPYTFGGGTKLEIKRADAAPTVSIFPPSSEQLTSGGASVVCFLNNFYPKDINVKWKIDGSERQNGVLNSWTDQDSKDSTYSMSSTLTLTKDEYERHNSYTCEATHKTSTSPIVKSFNRNEC
Q: How did the “tumour growth compared to the vehicle control” value ([5]; EMT6, MDX-001 10 mg/kg weekly, anti-PD-1 10 mg/kg twice weekly, i.v., 3 weeks) turn out when B1 was run?
A: did not significantly affect tumour growth

Q: And the adverse effects ([5]; EMT6 model)?
A: no adverse effects

Q: And the “tumour growth compared to vehicle (and monotherapies)” value (LL/2 lung cancer cells)?
A: neither MDX-001 nor the anti-PD-1 antibodies displayed efficacy
